We go through 41 compounds from patent US8822468B2 (Novartis AG, priority 2008, dated 2014).

In the assay the target is T1, cMET receptor tyrosine kinase (GST-cMET (969-1390)) (Homo sapiens, UniProt P08581).
T1 construct: made in house
T1 sequence (P08581 969-1390): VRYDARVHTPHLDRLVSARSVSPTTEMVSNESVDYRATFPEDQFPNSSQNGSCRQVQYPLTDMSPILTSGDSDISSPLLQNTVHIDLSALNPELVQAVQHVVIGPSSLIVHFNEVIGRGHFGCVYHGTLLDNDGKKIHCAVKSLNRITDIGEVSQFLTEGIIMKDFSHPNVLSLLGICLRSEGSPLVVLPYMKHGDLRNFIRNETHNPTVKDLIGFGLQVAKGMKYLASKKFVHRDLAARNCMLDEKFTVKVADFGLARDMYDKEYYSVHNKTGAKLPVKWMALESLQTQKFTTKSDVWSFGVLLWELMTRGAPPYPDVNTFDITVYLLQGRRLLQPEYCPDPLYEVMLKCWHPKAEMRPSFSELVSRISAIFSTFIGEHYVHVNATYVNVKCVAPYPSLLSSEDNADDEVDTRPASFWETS
The experiment in a line: EPK cMET profiling assay (LanthaScreen TR-FRET antibody based kinase phosphorylation assay). In kind it is biochemical. The following applies: purified recombinant GST-cMET (969-1390), 2 μM ATP, 50 nM Fluorescein-PolyEAY, 60 minutes at room temperature; read-out: c-Met IC50. The procedure, abridged:
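GST-cMET cytoplasmic domain (969-1390), 0.3 nM, phosphorylated 50 nM fluorescein-PolyEAY with 2 µM ATP, Mg2+/Mn2+, 0.6% DMSO, 60 min at room temperature. Stopped with EDTA; Tb-PY20 antibody TR-FRET single end-point read. Final compound concentrations 10 to 0.003 µM, 8 points.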
On the technique in general: TR-FRET usually uses a lanthanide donor and a delayed reading to cut background.
For the compound `COc1ccc(-c2ccc3ncc(Cc4ccc5ncccc5c4)n3n2)cn1` [Example 62, 6-[6-(6-Methoxy-pyridin-3-yl)-imidazo[1,2-b]pyridazin-3-ylmethyl]-quinoline], the IC50 (commonly the point on the concentration scale where inhibition reaches its midpoint) stood at 0.039 µM. For `c1cnc2ccc(Cc3cnc4ccc(-c5ccc6c(c5)CCO6)nn34)cc2c1` [Example 63, 6-[6-(2,3-Dihydro-benzofuran-5-yl)-imidazo[1,2-b]pyridazin-3-ylmethyl]-quinoline], the IC50 turned out to be 0.19 µM. For the compound `OCCCc1ccc(-c2ccc3ncc(Cc4ccc5ncccc5c4)n3n2)cc1` [Example 64, 3-[4-(3-Quinolin-6-ylmethyl-imidazo[1,2-b]pyridazin-6-yl)-phenyl]-propan-1-ol], the IC50 amounted to 0.079 µM. Take `c1cnc2ccc(Cc3cnc4ccc(-c5ccsc5)nn34)cc2c1` [Example 65, 6-(6-Thiophen-3-yl-imidazo[1,2-b]pyridazin-3-ylmethyl)-quinoline]: the IC50 amounted to 0.16 µM. For the compound `CN(C)CCNC(=O)c1cccc(-c2ccc3ncc(Cc4ccc5ncccc5c4)n3n2)c1` [Example 66, N-(2-Dimethylamino-ethyl)-3-(3-quinolin-6-ylmethyl-imidazo[1,2-b]pyridazin-6-yl)-benzamide], the IC50 was 0.06 µM. On to `N#Cc1cc(-c2ccc3ncc(Cc4ccc5ncccc5c4)n3n2)ccc1F` [Example 67, 2-Fluoro-5-(3-quinolin-6-ylmethyl-imidazo[1,2-b]pyridazin-6-yl)-benzonitrile], for which the IC50 was found to be 0.16 µM.

In the case of `Fc1ccc(-c2ccc3ncc(Cc4ccc5ncccc5c4)n3n2)cc1Cl` [Example 68, 6-[6-(3-Chloro-4-fluoro-phenyl)-imidazo[1,2-b]pyridazin-3-ylmethyl]-quinoline], the IC50 was 0.48 µM. For `c1cnc2ccc(Cc3cnc4ccc(-c5ccn[nH]5)nn34)cc2c1` [Example 69, 6-[6-(2H-Pyrazol-3-yl)-imidazo[1,2-b]pyridazin-3-ylmethyl]-quinoline], the IC50 worked out at 0.82 µM. `CNC(=O)c1ccc(-c2ccc3ncc(Cc4ccc5ncccc5c4)n3n2)cc1F` [Example 70, 2-Fluoro-N-methyl-4-(3-quinolin-6-ylmethyl-imidazo[1,2-b]pyridazin-6-yl)-benzamide]: the half-maximal inhibitory concentration (IC50) came to 0.062 µM. Next, `CNC(=O)c1ccc(-c2ccc3ncc(Cc4ccc5ncccc5c4)n3n2)cc1Cl` [Example 71, 2-Chloro-N-methyl-4-(3-quinolin-6-ylmethyl-imidazo[1,2-b]pyridazin-6-yl)-benzamide]: 0.024 µM; `Oc1ccc(-c2ccc3ncc(Cc4ccc5ncccc5c4)n3n2)cn1` [Example 73, 5-(3-Quinolin-6-ylmethyl-imidazo[1,2-b]pyridazin-6-yl)-pyridin-2-ol]: 0.048 µM; `Clc1ccc2ncc(Cc3ccc4nccn4c3)n2n1` [Example 74, 6-chloro-3-imidazo[1,2-a]pyridin-6-ylmethyl-imidazo[1,2-b]pyridazine]: 0.2 µM.

Consider `OCCNc1ccc2ncc(Cc3ccc4nccn4c3)n2n1` [Example 75, 2-(3-Imidazo[1,2-a]pyridin-6-ylmethyl-imidazo[1,2-b]pyridazin-6-ylamino)-ethanol], for which the IC50 is 0.3 µM. For the compound `CN(C)[C@@H]1CCN(c2ccc3ncc(Cc4ccc5nccn5c4)n3n2)C1` [Example 76, [(R)-1-(3-Imidazo[1,2-a]pyridin-6-ylmethyl-imidazo[1,2-b]pyridazin-6-yl)-pyrrolidin-3-yl]-dimethyl-amine], the concentration for half-maximal inhibition (IC50) is 0.3 µM. Turning to `CCC(C)Nc1ccc2ncc(Cc3ccc4ncccc4c3)n2n1` (centres unmarked) [Example 78, sec-Butyl-(3-quinolin-6-ylmethyl-imidazo[1,2-b]pyridazin-6-yl)-amine], the half-inhibitory concentration (IC50) came out at 0.009 µM. Consider `CC(C)CNc1ccc2ncc(Cc3ccc4ncccc4c3)n2n1` [Example 79, Isobutyl-(3-quinolin-6-ylmethyl-imidazo[1,2-b]pyridazin-6-yl)-amine], for which the IC50 is 0.044 µM. Next, `c1cnc2ccc(Cc3cnc4ccc(NCC5CCCO5)nn34)cc2c1` (centres unmarked) [Example 80, (3-Quinolin-6-ylmethyl-imidazo[1,2-b]pyridazin-6-yl)-(tetrahydro-furan-2-ylmethyl)-amine]: 0.038 µM. Consider `c1cnc2ccc(Cc3cnc4ccc(NC5CCCC5)nn34)cc2c1` [Example 81, Cyclopentyl-(3-quinolin-6-ylmethyl-imidazo[1,2-b]pyridazin-6-yl)-amine], for which the IC50 is 0.076 µM. As for `c1ccc(CNc2ccc3ncc(Cc4ccc5ncccc5c4)n3n2)cc1` [Example 82, Benzyl-(3-quinolin-6-ylmethyl-imidazo[1,2-b]pyridazin-6-yl)-amine], the 50% inhibitory concentration (IC50) came to 0.22 µM. With `CN1CCC(Nc2ccc3ncc(Cc4ccc5ncccc5c4)n3n2)CC1` [Example 83, (1-Methyl-piperidin-4-yl)-(3-quinolin-6-ylmethyl-imidazo[1,2-b]pyridazin-6-yl)-amine], the IC50 was found to be 0.115 µM.

For `c1cnc2ccc(Cc3cnc4ccc(N5CCOCC5)nn34)cc2c1` [Example 84, 6-(6-Morpholin-4-yl-imidazo[1,2-b]pyridazin-3-ylmethyl)-quinoline], the IC50 turned out to be 0.049 µM. With `c1cnc2ccc(Cc3cnc4ccc(N5CCCC5)nn34)cc2c1` [Example 85, 6-(6-Pyrrolidin-1-yl-imidazo[1,2-b]pyridazin-3-ylmethyl)-quinoline], the IC50 came to 0.095 µM. `CN(C)C1CCN(c2ccc3ncc(Cc4ccc5ncccc5c4)n3n2)CC1` [Example 86, Dimethyl-[1-(3-quinolin-6-ylmethyl-imidazo[1,2-b]pyridazin-6-yl)-piperidin-4-yl]-amine]: the IC50 was found to be 0.16 µM. For the compound `CN(C)[C@@H]1CCN(c2ccc3ncc(Cc4ccc5ncccc5c4)n3n2)C1` [Example 88, Dimethyl-[(R)-1-(3-quinolin-6-ylmethyl-imidazo[1,2-b]pyridazin-6-yl)-pyrrolidin-3-yl]-amine], the IC50 is 0.012 µM.

Regarding `COCCNc1ccc2ncc(Cc3ccc4ncccc4c3)n2n1` [Example 89, (2-Methoxy-ethyl)-(3-quinolin-6-ylmethyl-imidazo[1,2-b]pyridazin-6-yl)-amine], the IC50 amounted to 0.026 µM. Take `CCC(CC)Nc1ccc2ncc(Cc3ccc4ncccc4c3)n2n1` [Example 90, (1-Ethyl-propyl)-(3-quinolin-6-ylmethyl-imidazo[1,2-b]pyridazin-6-yl)-amine]: the IC50 turned out to be 0.074 µM. For the compound `CC(C)Nc1ccc2ncc(Cc3ccc4ncccc4c3)n2n1` [Example 91, Isopropyl-(3-quinolin-6-ylmethyl-imidazo[1,2-b]pyridazin-6-yl)-amine], the IC50 was found to be 0.029 µM. Next, `OCCNc1ccc2ncc(Cc3ccc4ncccc4c3)n2n1` [Example 92, 2-(3-Quinolin-6-ylmethyl-imidazo[1,2-b]pyridazin-6-ylamino)-ethanol]: 0.032 µM. `Cc1csc(Nc2ccc3ncc(Cc4ccc5ncccc5c4)n3n2)n1` [Example 93]: the IC50 was determined as 0.39 µM. With `CC(=O)NCCNc1ccc2ncc(Cc3ccc4ncccc4c3)n2n1` [Example 96, N-[2-(3-Quinolin-6-ylmethyl-imidazo[1,2-b]pyridazin-6-ylamino)-ethyl]-acetamide], the IC50 stood at 0.19 µM. Take `c1cnc2ccc(Cc3cnc4ccc(NC5CCCCCCC5)nn34)cc2c1` [Example 97, Cyclooctyl-(3-quinolin-6-ylmethyl-imidazo[1,2-b]pyridazin-6-yl)-amine]: the half-inhibitory concentration (IC50) is 0.61 µM. On to `CCC(C)(C)Nc1ccc2ncc(Cc3ccc4ncccc4c3)n2n1` [Example 98, (1,1-Dimethyl-propyl)-(3-quinolin-6-ylmethyl-imidazo[1,2-b]pyridazin-6-yl)-amine], for which the IC50 is 0.11 µM. The value for `O=S1(=O)CCC(Nc2ccc3ncc(Cc4ccc5ncccc5c4)n3n2)C1` (centres unmarked) [Example 99, 1,1-Dioxo-tetrahydro-1lambda*6*-thiophen-3-yl)-(3-quinolin-6-ylmethyl-imidazo[1,2-b]pyridazin-6-yl)-amine] was 0.12 µM; that for `CN(C)CCCNc1ccc2ncc(Cc3ccc4ncccc4c3)n2n1` [Example 101, N,N-Dimethyl-N′-(3-quinolin-6-ylmethyl-imidazo[1,2-b]pyridazin-6-yl)-propane-1,3-diamine] was 0.13 µM.

As to `O=C1CN(c2ccc3ncc(Cc4ccc5ncccc5c4)n3n2)CCN1` [Example 102, 4-(3-Quinolin-6-ylmethyl-imidazo[1,2-b]pyridazin-6-yl)-piperazin-2-one], the IC50 was 0.038 µM. The value for `CC(Nc1ccc2ncc(Cc3ccc4ncccc4c3)n2n1)c1ccccc1` (centres unmarked) [Example 103, (1-Phenyl-ethyl)-(3-quinolin-6-ylmethyl-imidazo[1,2-b]pyridazin-6-yl)-amine] was 0.55 µM; that for `CN(C)c1ccc2ncc(Cc3ccc4ncccc4c3)n2n1` [Example 106, Dimethyl-(3-quinolin-6-ylmethyl-imidazo[1,2-b]pyridazin-6-yl)-amine] was 0.074 µM. With `O[C@H]1CCN(c2ccc3ncc(Cc4ccc5ncccc5c4)n3n2)C1` [Example 107, (S)-1-(3-Quinolin-6-ylmethyl-imidazo[1,2-b]pyridazin-6-yl)-pyrrolidin-3-ol], the IC50 was found to be 0.02 µM. For `O[C@@H]1CCN(c2ccc3ncc(Cc4ccc5ncccc5c4)n3n2)C1` [Example 108, (R)-1-(3-Quinolin-6-ylmethyl-imidazo[1,2-b]pyridazin-6-yl)-pyrrolidin-3-ol], the IC50 was found to be 0.0098 µM. Next, `O=C1CCN(c2ccc3ncc(Cc4ccc5ncccc5c4)n3n2)CCN1` [Example 109, 1-(3-Quinolin-6-ylmethyl-imidazo[1,2-b]pyridazin-6-yl)-[1,4]diazepan-5-one]: 0.062 µM. On to `c1cnc2ccc(Cc3cnc4ccc(N5CCC6(CC5)OCCO6)nn34)cc2c1` [Example 110, 6-[6-(1,4-Dioxa-8-aza-spiro[4.5]dec-8-yl)-imidazo[1,2-b]pyridazin-3-ylmethyl]-quinoline], for which the IC50 came out at 0.042 µM.
